Measured values: publication PMC6204753, “Non-native autoinducer analogs capable of modulating the SdiA quorum sensing receptor in Salmonella enterica serovar Typhimurium” (Beilstein Journal of Organic Chemistry, 2018)
Marks after values point to notes of the source that are not given here.

How the values were obtained:
SdiA [1] = molecular target: T1, SdiA (Salmonella enterica subsp. enterica serovar Typhimurium, UniProt O66040); experiment: S. Typhimurium-pJNS25 SdiA reporter, competitive antagonism against 10 nM L-OOHL; assay type: cell-based; settings: for inhibition at 1 µM / Antagonism 1 μM Inhibition (%): 1 μM compound; for inhibition at 1 µM / inhibition at 100 µM / Antagonism 1 μM Inhibition (%) / Antagonism 100 μM Inhibition (%): average ± STD, change in activity from 10 nM 2 (OOHL); for inhibition at 1 µM: read-out: Antagonism 1 μM Inhibition (%); for inhibition at 100 µM / Antagonism 100 μM Inhibition (%): 100 μM compound; for inhibition at 100 µM: read-out: Antagonism 100 μM Inhibition (%); for Emax: maximal inhibition, 100% minus lowest % activity in presence of 10 nM L-OOHL (2), read-out: inhibition (%); for IC50: against 10 nM L-OOHL (EC90)
T1 sequence (O66040 entry or part of it): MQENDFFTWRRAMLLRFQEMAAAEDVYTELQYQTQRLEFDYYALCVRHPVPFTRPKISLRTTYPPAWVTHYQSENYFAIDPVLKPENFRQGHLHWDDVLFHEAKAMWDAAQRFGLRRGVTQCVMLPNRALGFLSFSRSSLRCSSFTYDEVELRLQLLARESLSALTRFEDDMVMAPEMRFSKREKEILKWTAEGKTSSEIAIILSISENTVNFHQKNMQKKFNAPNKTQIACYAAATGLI
Excerpt: (§1) Biological assays for SdiA activity. Cell-based reporter strains that rely on detecting the transcriptional activity of LuxR-type receptors are commonly used to assess the activity of exogenous ligands. We used the S. Typhimurium-pJNS25 reporter strain constructed by Smith and Ahmer and also used by Janssens et al. to examine SdiA activity. This strain naturally produces SdiA and contains a reporter plasmid with the promoter region for srgE fused to the luxABCDE operon of V. fischeri (see Experimental section for details of all strains and plasmids). SdiA activity is thus reported by the production of luciferase and resulting bioluminescence. We also prepared an SdiA reporter in E. coli (JLD271-pJN105SE-pSC11SE) to examine S. Typhimurium SdiA activity in an alternate background and with a different reporter gene output. […] This reporter construct uses an arabinose inducible promoter to produce S. Typhimurium SdiA and the promoter region for srgE fused to lacZ to report SdiA activity. SdiA activity is then measured using standard β-galactosidase assays. In both reporter strains, signal was normalized to the difference between the positive control (10 μM OOHL) and the negative control (1% DMSO; no compound).
(§2) Salmonella SdiA reporter assay. S. Typhimurium-pJNS25 was grown 16–18 h overnight in LB, diluted 1:100 in fresh LB medium, and then incubated for 6 h at 37 °C with shaking at 200 rpm in the presence of compounds (1% DMSO). […] All compounds were screened at 100 μM and 1 μM in triplicate in agonism and antagonism assays. […] Dose–response analyses were performed by preparing dilutions of compounds in DMSO and testing each concentration in the agonism or antagonism assays. Competition dose–response assays (data in Figure 5) were performed in the same manner as the antagonism assays, except instead of OOHL being added to the subculture, the antagonist being tested was added. Non-linear regression curve fits were generated using GraphPad Prism software (version 6) using variable slope (four parameter) dose–response analysis.

SdiA [2] = molecular target: T1, SdiA; experiment: S. Typhimurium-pJNS25 SdiA reporter, agonism (luminescence); assay type: cell-based; settings: for EC50: agonism dose–response, read-out: EC50; for Emax: read-out: activation (%); for fold increase: potency of thiolactone over corresponding lactone (EC50 ratio)
Excerpt: as §1, §2

[3] = maximal activity (efficacy) from agonism dose–response, 10 μM OOHL = 100%, DMSO = 0%
[4] = maximal activation of the antagonists (partial agonism), Table 3

For O=C(CCC1CCCCC1)N[C@H]1CCOC1=O [B11], the inhibition at 1 µM (SdiA [1]) was 6 ± 5%, the inhibition at 100 µM (SdiA [1]) was 8 ± 14% and the EC50 (SdiA [2]) was 50.1 nM. It also gave an Emax (SdiA [2]; [3]) of 93%.
Compound O=C(COc1ccc(I)cc1)N[C@H]1CCSC1=O [RN22] has an inhibition at 1 µM (SdiA [1]) of -4 ± 9%, an inhibition at 100 µM (SdiA [1]) of 3 ± 9% and an EC50 (SdiA [2]) of 6.08 nM. The Emax (SdiA [2]; [3]) was 93% and the fold increase (SdiA [2]) was 1.71^c.
In the case of CCCCCCCC(=O)CC(=O)N[C@H]1CCOC1=O [A7], the inhibition at 1 µM (SdiA [1]) is reported as -4 ± 19%, the inhibition at 100 µM (SdiA [1]) is reported as -2 ± 10% and the EC50 (SdiA [2]) is reported as 26.6 nM. For the same compound, the Emax (SdiA [2]; [3]) was 85%.
Cc1cccc(OCC(=O)N[C@H]2CCOC2=O)c1 [E16] was tested, and the inhibition at 1 µM (SdiA [1]) was -2 ± 8%, the inhibition at 100 µM (SdiA [1]) was -4 ± 5% and the EC50 (SdiA [2]) was 43.3 nM. For the same compound, the Emax (SdiA [2]; [3]) was 100%.
For O=C(Oc1c(Br)cc(Br)cc1CNC(=O)c1ccccc1[N+](=O)[O-])c1ccccc1Cl [19R, reference compound], the inhibition at 1 µM (SdiA [1]) was 43 ± 10%, the inhibition at 100 µM (SdiA [1]) was 38 ± 11% and the Emax (SdiA [1]) was 44%. It also gave an Emax (SdiA [2]; [4]) of 40%.
In the case of CCCCCCC(CCCC)C(=O)N[C@H]1CCOC1=O (stereo partly drawn) [S2], the inhibition at 1 µM (SdiA [1]) is reported as 48 ± 3%, the inhibition at 100 µM (SdiA [1]) is reported as 2 ± 11% and the Emax (SdiA [1]) is reported as 32%. It also gave an Emax (SdiA [2]; [4]) of 63%.
In the case of COc1ccc(CC(=O)N[C@H]2CCSC2=O)cc1 [F12], the inhibition at 1 µM (SdiA [1]) is reported as -13 ± 10%, the inhibition at 100 µM (SdiA [1]) is reported as -21 ± 8% and the EC50 (SdiA [2]) is reported as 38.8 nM. For the same compound, the Emax (SdiA [2]; [3]) was 84% and the fold increase (SdiA [2]) was 6.49.
CCCCCC(=O)CC(=O)N[C@H]1CCSC1=O [F2] showed an inhibition at 1 µM (SdiA [1]) of -19 ± 12%, an inhibition at 100 µM (SdiA [1]) of -19 ± 15% and an EC50 (SdiA [2]) of 0.7 nM. The Emax (SdiA [2]; [3]) was 119% and the fold increase (SdiA [2]) was 1.47^c.
Compound O=C(Cc1ccc(-c2ccccc2)cc1)N[C@H]1CCSC1=O [F13] has an inhibition at 1 µM (SdiA [1]) of 23 ± 4%, an inhibition at 100 µM (SdiA [1]) of 46 ± 15% and an IC50 (SdiA [1]) of 2350 nM. The Emax (SdiA [1]) was 51% and the Emax (SdiA [2]; [4]) was 59%.
In the case of O=C(Nc1ccccc1NC(=O)c1cccc(Cl)c1)c1cccc(Cl)c1 [compound 20, reference compound], the inhibition at 1 µM (SdiA [1]) is reported as 35 ± 18%, the inhibition at 100 µM (SdiA [1]) is reported as 39 ± 17% and the Emax (SdiA [1]) is reported as 53%. For the same compound, the Emax (SdiA [2]; [4]) was 47%.
O=C(CC1CCCCC1)N[C@H]1CCOC1=O [S7] showed an inhibition at 1 µM (SdiA [1]) of 7 ± 14%, an inhibition at 100 µM (SdiA [1]) of 1 ± 7% and an EC50 (SdiA [2]) of 106 nM. The Emax (SdiA [2]; [3]) was 89%.
In the case of Cc1ccc(OCC(=O)N[C@H]2CCOC2=O)cc1 [E15], the inhibition at 1 µM (SdiA [1]) is reported as -3 ± 5%, the inhibition at 100 µM (SdiA [1]) is reported as -17 ± 7% and the EC50 (SdiA [2]) is reported as 33 nM. The Emax (SdiA [2]; [3]) was 98%.
With CCCCCCCCCCCCCCCC(=O)N[C@H]1CCOC1=O [A6] the inhibition at 1 µM (SdiA [1]) was 17 ± 12%, the inhibition at 100 µM (SdiA [1]) was 38 ± 5% and the IC50 (SdiA [1]) was 1750 nM. For the same compound, the Emax (SdiA [1]) was greater than 50% and the Emax (SdiA [2]; [4]) was 20%.
Work on N#Cc1cccc(CC(=O)N[C@H]2CCOC2=O)c1 [E5] yielded an inhibition at 1 µM (SdiA [1]) of 18 ± 8%, an inhibition at 100 µM (SdiA [1]) of -8 ± 4% and an EC50 (SdiA [2]) of 62.2 nM. For the same compound, the Emax (SdiA [2]; [3]) was 73%.
For CCCCCCCCCCOc1ccc(C(=O)N[C@H]2CCOC2=O)cc1 [R7], the inhibition at 1 µM (SdiA [1]) was 8 ± 6%, the inhibition at 100 µM (SdiA [1]) was 43 ± 15% and the IC50 (SdiA [1]) was 3100 nM. For the same compound, the Emax (SdiA [1]) was 51% and the Emax (SdiA [2]; [4]) was 6%.
In the case of CCCCCCCC(=O)N[C@H]1CCSC1=O [F5], the inhibition at 1 µM (SdiA [1]) is reported as 3 ± 6%, the inhibition at 100 µM (SdiA [1]) is reported as 0% and the EC50 (SdiA [2]) is reported as 2.28 nM. For the same compound, the Emax (SdiA [2]; [3]) was 79% and the fold increase (SdiA [2]) was 8.12.
In the case of CCCCCCCC(=O)N[C@H]1CCOC1=O [A3], the “Antagonism 1 μM Inhibition (%)” value (SdiA [1]) is reported as 10 ± 8%, the “Antagonism 100 μM Inhibition (%)” value (SdiA [1]) is reported as 13 ± 14% and the EC50 (SdiA [2]) is reported as 18.1 nM.
In the case of O=C(N[C@H]1CCOC1=O)c1ccc2c(c1)OCO2 [Q11], the “Antagonism 1 μM Inhibition (%)” value (SdiA [1]) is reported as 7 ± 7% and the “Antagonism 100 μM Inhibition (%)” value (SdiA [1]) is reported as -2 ± 12%.
CCCCCCCCCCCCCC(O)CC(=O)N[C@H]1CCOC1=O (stereo partly drawn) [H6] was tested, and the “Antagonism 1 μM Inhibition (%)” value (SdiA [1]) was 15 ± 1% and the “Antagonism 100 μM Inhibition (%)” value (SdiA [1]) was 15 ± 13%.
With CCCCCCC(=O)N[C@H]1CCSC1=O [F6] the “Antagonism 1 μM Inhibition (%)” value (SdiA [1]) was 5 ± 5% and the “Antagonism 100 μM Inhibition (%)” value (SdiA [1]) was -2 ± 7%.
With O=C(CCCOc1ccc(Cl)cc1)N[C@H]1CCOC1=O [compound 10, reference compound] the “Antagonism 1 μM Inhibition (%)” value (SdiA [1]) was 9 ± 12% and the “Antagonism 100 μM Inhibition (%)” value (SdiA [1]) was 5 ± 15%.
With N#Cc1ccc(CC(=O)N[C@H]2CCOC2=O)cc1 [E4] the “Antagonism 1 μM Inhibition (%)” value (SdiA [1]) was 12 ± 6% and the “Antagonism 100 μM Inhibition (%)” value (SdiA [1]) was -17 ± 18%.
For O=C(NCc1cc(Br)cc(Br)c1OC(=O)c1ccccc1[N+](=O)[O-])c1ccccc1Cl [19P, reference compound], the “Antagonism 1 μM Inhibition (%)” value (SdiA [1]) was 39 ± 16% and the “Antagonism 100 μM Inhibition (%)” value (SdiA [1]) was 25 ± 16%.
O=C(Cc1ccc(SC(F)(F)F)cc1)N[C@H]1CCOC1=O [E8] was tested, and the “Antagonism 1 μM Inhibition (%)” value (SdiA [1]) was 34 ± 11% and the “Antagonism 100 μM Inhibition (%)” value (SdiA [1]) was 31 ± 7%.
Cc1nc(-c2ccccc2)oc1CC(=O)N[C@H]1CCOC1=O [D4] was tested, and the “Antagonism 1 μM Inhibition (%)” value (SdiA [1]) was 28 ± 13% and the “Antagonism 100 μM Inhibition (%)” value (SdiA [1]) was -6 ± 4%.
